One may read the IC50 as the point on the concentration scale where inhibition reaches its midpoint.

Structures can show the parent of a compound that is named as a salt. Where two headings read alike, the source gives them in different places.

IC50 data for 7 compounds are collected here from patent US11492335B2, “Aryl or heteroaryl triazolone derivatives or salts thereof, or pharmaceutical compositions comprising the same” (YUHAN CORPORATION, priority 2018, dated 2022).

What all share (assay type): biochemical
One experiment has as its target T1, recombinant human VAP-1 (Homo sapiens, UniProt Q16853).
T1 construct: purchased R&D systems
T1 sequence (Q16853 1-763): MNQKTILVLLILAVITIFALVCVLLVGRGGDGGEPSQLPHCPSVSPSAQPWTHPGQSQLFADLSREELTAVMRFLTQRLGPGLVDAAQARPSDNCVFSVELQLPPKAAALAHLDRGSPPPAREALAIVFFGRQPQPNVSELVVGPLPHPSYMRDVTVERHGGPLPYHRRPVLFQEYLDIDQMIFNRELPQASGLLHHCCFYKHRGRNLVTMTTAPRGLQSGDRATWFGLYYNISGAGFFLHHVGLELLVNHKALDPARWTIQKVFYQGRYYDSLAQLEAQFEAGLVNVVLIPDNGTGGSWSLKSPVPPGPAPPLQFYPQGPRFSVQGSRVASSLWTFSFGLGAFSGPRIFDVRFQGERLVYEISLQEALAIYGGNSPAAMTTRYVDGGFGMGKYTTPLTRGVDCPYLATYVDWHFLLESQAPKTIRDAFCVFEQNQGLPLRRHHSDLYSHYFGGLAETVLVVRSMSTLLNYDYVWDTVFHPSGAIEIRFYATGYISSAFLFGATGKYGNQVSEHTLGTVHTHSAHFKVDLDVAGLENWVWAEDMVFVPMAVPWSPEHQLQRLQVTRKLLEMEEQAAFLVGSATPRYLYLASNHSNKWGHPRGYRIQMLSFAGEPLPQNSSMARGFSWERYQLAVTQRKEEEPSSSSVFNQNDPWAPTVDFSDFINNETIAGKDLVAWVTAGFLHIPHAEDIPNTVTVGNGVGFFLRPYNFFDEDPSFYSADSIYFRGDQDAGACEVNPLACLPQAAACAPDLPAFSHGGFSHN
Kind of experiment: Activity on recombinant human VAP-1, Amplex Red HRP-coupled hydrogen peroxide assay, benzylamine substrate. To be noted: recombinant human VAP-1, benzylamine substrate, read-out: Inhibitory Activity (IC50, nM) human VAP-1. In a few lines: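 H2O2 generation from 1 mM benzylamine was coupled via 1 U/mL HRP to 200 uM Amplex Red; inhibitors, serially diluted 1:3 over 8 points with under 1% final DMSO, had been preincubated 30 min at 37 °C. IC50 from percentage drop in rate.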

Experiment [1] deals with T2, recombinant human MAO-A (monoamine oxidase-A) (Homo sapiens, UniProt P21397).
T2 construct: purchased Sigma-Aldrich
T2 sequence (P21397 1-527): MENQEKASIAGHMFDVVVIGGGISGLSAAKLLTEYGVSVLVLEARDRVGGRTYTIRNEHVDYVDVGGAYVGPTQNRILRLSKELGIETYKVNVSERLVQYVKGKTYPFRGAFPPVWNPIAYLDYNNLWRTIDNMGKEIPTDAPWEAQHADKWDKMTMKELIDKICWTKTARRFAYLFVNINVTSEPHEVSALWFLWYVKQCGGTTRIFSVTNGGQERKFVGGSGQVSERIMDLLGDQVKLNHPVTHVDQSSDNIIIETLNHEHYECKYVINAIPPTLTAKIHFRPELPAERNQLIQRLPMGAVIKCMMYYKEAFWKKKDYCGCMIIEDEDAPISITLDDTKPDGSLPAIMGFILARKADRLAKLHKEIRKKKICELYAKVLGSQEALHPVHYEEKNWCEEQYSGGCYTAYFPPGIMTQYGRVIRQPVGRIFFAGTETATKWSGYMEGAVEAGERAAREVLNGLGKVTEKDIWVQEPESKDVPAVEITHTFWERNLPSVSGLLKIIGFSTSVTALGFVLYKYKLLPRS
Kind of experiment: Activity on recombinant human MAO-A, Amplex Red method, 0.5 mM tyramine substrate. To be noted: read-out: Inhibitory Activity (IC50, nM) MAO-A. How it is done:
The compounds according to the present technology were evaluated in terms of activity on recombinant human VAP-1 (R&D systems) by measuring the level of hydrogen peroxide in horseradish peroxidase (HRP)-coupled reaction using Amplex Red Hydrogen Peroxide Assay Kit (Molecular Probes, Invitrogen, USA). The experiment was carried out at room temperature using benzylamine as a substrate. In the HRP-coupled reaction, hydrogen peroxide oxidation of 10-acetyl-3,7-dihydroxyphenoxazine (Amplex Red reagent) produces resorufin, which is a highly fluorescent compound. Briefly, the test compound was dissolved in dimethyl sulfoxide (DMSO) at a concentration of 20 mM. The dose-response assessment was made by 1:3 serial dilution in DMSO, thereby creating an 8 point curve. The concentration of the upper part was controlled according to the efficacy of the compounds, followed by dilution with a reaction buffer solution to obtain a final DMSO concentration less than 1%. To each well of a 96 black well plate, human VAP-1 purified in 50 mM sodium phosphate buffer solution (pH7.4) was added. The test compounds dissolved in DMSO were incubated with the human VAP-1 enzymes at 37° C. for 30 minutes. After 30-minute incubation, each well is added with a reaction mixture containing 200 uM Amplex Red reagent prepared from 50 mM sodium phosphate buffer solution (pH 7.4), 1 mM benzylamine, and 1 U/mL HRP. Fluorescence intensity was measured at several time points during 1-2 hours using a microplate reader (Flexstation3, Molecular Devices) under the wavelength condition exciting at 544 nm and reading the emission at 590 nm. The inhibitory effect of the compounds was measured as a decrease (%) in the signal rate as compared to the control group without any inhibitor (only diluted DMSO). Data was fixed to a logistic model with four variables and IC50 value was calculated using GraphPad Prism program.
In addition, the compounds according to the present technology were evaluated in terms of activity on a recombinant human MAO-A (monoamine oxidase-A, Sigma-Aldrich) and a recombinant human MAO-B (monoamine oxidase-B, Sigma-Aldrich) by using as substrates, 0.5 mM tyramine and 1 mM benzylamine, respectively, with a method similar to the activity evaluation method for recombinant human VAP-1. The compounds according to the present technology were also evaluated in terms of activity on a recombinant human DAO (diamine oxidase, R&D systems) by using as a substrate 1 mM putrescine with a method similar to the activity evaluation method for recombinant human VAP-1.

Experiment [2] concerns the target T3, recombinant human MAO-B (monoamine oxidase-B) (Homo sapiens, UniProt P27338).
T3 construct: purchased Sigma-Aldrich
T3 sequence (P27338 1-520): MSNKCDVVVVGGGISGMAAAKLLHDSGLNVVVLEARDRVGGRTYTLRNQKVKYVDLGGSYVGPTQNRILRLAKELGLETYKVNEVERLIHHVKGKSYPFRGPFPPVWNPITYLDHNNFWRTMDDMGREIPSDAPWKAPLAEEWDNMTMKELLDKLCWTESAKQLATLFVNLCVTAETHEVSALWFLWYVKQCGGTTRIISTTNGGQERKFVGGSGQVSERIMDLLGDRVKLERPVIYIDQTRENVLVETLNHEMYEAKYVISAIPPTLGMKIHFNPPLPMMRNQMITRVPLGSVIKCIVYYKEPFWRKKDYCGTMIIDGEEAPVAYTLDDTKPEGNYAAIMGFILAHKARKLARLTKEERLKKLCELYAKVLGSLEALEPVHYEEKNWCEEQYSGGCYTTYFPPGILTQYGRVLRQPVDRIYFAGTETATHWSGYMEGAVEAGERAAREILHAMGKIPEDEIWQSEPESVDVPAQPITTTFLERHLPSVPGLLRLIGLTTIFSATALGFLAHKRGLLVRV
Kind of experiment: Activity on recombinant human MAO-B, Amplex Red method, 1 mM benzylamine substrate. To be noted: read-out: Inhibitory Activity (IC50, nM) MAO-B. In a few lines:
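First, serially diluted compounds were incubated with recombinant enzyme in 50 mM sodium phosphate, pH 7.4, for 30 min at 37° C. Next, Amplex Red (200 uM), HRP (1 U/mL) and tyramine (0.5 mM, MAO-A) or benzylamine (1 mM, MAO-B) were added. Then fluorescence was monitored over 1-2 h and IC50 fitted.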

The target of experiment [3] is T4, recombinant human DAO (diamine oxidase) (Homo sapiens, UniProt P19801).
T4 construct: purchased R&D systems
T4 sequence (P19801 20-751): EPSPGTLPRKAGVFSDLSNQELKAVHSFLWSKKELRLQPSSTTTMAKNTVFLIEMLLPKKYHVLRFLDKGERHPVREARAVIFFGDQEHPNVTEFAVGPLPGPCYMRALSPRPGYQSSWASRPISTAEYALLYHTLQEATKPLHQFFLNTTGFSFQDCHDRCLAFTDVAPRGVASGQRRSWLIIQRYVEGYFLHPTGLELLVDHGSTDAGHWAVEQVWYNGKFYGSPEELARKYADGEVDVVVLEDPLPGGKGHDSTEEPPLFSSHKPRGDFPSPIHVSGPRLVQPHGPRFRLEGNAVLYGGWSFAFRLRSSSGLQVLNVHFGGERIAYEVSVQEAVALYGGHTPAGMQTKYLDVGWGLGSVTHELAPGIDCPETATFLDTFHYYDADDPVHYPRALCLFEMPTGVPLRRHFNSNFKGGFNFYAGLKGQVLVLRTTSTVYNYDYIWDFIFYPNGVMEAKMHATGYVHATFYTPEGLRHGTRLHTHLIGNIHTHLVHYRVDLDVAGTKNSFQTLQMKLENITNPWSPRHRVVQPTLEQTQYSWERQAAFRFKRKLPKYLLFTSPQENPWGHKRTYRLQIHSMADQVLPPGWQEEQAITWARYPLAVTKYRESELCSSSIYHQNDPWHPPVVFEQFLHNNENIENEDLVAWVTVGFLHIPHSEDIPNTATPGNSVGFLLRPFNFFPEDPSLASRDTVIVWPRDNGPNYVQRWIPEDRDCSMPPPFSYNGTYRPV
Kind of experiment: Activity on recombinant human DAO, Amplex Red method, 1 mM putrescine substrate. The note with it: recombinant human DAO, read-out: Inhibitory Activity (IC50, nM) DAO. In a few lines:
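Inhibition of recombinant human DAO (diamine oxidase, R&D systems) was assessed with the Amplex Red Hydrogen Peroxide Assay Kit. Hydrogen peroxide produced from 1 mM putrescine was detected through an HRP-coupled reaction that converts Amplex Red into fluorescent resorufin, read at 544 nm excitation and 590 nm emission. IC50 values came from four-parameter logistic fits in GraphPad Prism.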

The mark [4] stands for this setting: 1 mM putrescine, * = between 10 and 100 nM, ** = between 300 and 1000 nM.

Consider `NC/C(=C/F)Cn1ncn(-c2ncc(-c3ccc4c(c3)OCO4)s2)c1=O` [Example 232, 2-[(2Z)-2-(aminomethyl)-3-fluoroprop-2-en-1-yl]-4-[5-(1,3-benzodioxol-5-yl)-1,3-thiazol-2-yl]-2,4-dihydro-3H-1,2,4-triazol-3-one hydrochloride], for which the IC50 on recombinant human VAP-1 was 0.78 nM; in experiment [1] (0.5 mM tyramine substrate), 24 nM; in experiment [2] (1 mM benzylamine substrate) it was less than 100 nM; in experiment [3] (1 mM putrescine substrate) it was less than 100 nM.
As for `CS(=O)(=O)c1ccc(-c2cccc(-n3cnn(C/C(=C/F)CN)c3=O)c2)cc1` [Example 54, 2-[(2E)-2-(aminomethyl)-3-fluoroprop-2-en-1-yl]-4-[4′-(methylsulfonyl)biphenyl-3-yl]-2,4-dihydro-3H-1,2,4-triazol-3-one hydrochloride], the half-maximal inhibitory concentration (IC50) on recombinant human VAP-1 (30 min preincubation at 37° C.) was 0.4 nM; in experiment [1] (0.5 mM tyramine) it was more than 100000 nM; in experiment [2] (1 mM benzylamine) it was more than 10000 nM; in experiment [3] (setting [4]), less than 100 nM.
On to `Cc1cc(-c2cccc(-c3noc(C(C)C)n3)c2)cnc1-n1cnn(C/C(=C/F)CN)c1=O` [Example 143, 2-[(2E)-2-(aminomethyl)-3-fluoroprop-2-en-1-yl]-4-(3-methyl-5-{3-[5-(propan-2-yl)-1,2,4-oxadiazol-3-yl]phenyl}pyridin-2-yl)-2,4-dihydro-3H-1,2,4-triazol-3-one hydrochloride], for which the IC50 turned out to be 0.43 nM at recombinant human VAP-1 (30 min preincubation at 37° C.), 112000 nM in experiment [1] (0.5 mM tyramine), 5340 nM in experiment [2] (1 mM benzylamine) and 12 nM in experiment [3] (setting [4]).
Regarding `NC/C(=C\F)Cn1ncn(-c2ncc(Br)cc2F)c1=O` [Example 36, 2-[(2E)-2-(aminomethyl)-3-fluoroprop-2-en-1-yl]-4-(5-bromo-3-fluoropyridin-2-yl)-2,4-dihydro-3H-1,2,4-triazol-3-one hydrochloride], the half-inhibitory concentration (IC50) at recombinant human VAP-1 (30 min preincubation at 37° C.) was 1.2 nM; in experiment [1] (0.5 mM tyramine), more than 100000 nM; in experiment [2] (1 mM benzylamine) it was 3350 nM; in experiment [3] (setting [4]) it was 23 nM.
For `Cc1cc(-n2cnn(C/C(=C/F)CN)c2=O)cnc1-c1ccc(-c2nc[nH]n2)cc1` [Example 115, 2-[(2E)-2-(aminomethyl)-3-fluoroprop-2-en-1-yl]-4-{5-methyl-6-[4-(1H-1,2,4-triazol-3-yl)phenyl]pyridin-3-yl}-2,4-dihydro-3H-1,2,4-triazol-3-one] the same measures were 1.5 nM, more than 100000 nM, 980 nM and less than 100 nM.
The corresponding values for `CC(C)c1nc(-c2cccc(-c3cccc(-n4cnn(C/C(=C/F)CN)c4=O)c3)c2)no1` [Example 65, 2-[(2E)-2-(aminomethyl)-3-fluoroprop-2-en-1-yl]-4-{3′-[5-(propan-2-yl)-1,2,4-oxadiazol-3-yl]biphenyl-3-yl}-2,4-dihydro-3H-1,2,4-triazol-3-one hydrochloride] are 0.93 nM, more than 100000 nM, more than 10000 nM and less than 30 nM.
For `Cc1cc(-n2cnn(C/C(=C/F)CN)c2=O)ccc1Br` [Example 16, 2-[(2E)-2-(aminomethyl)-3-fluoroprop-2-en-1-yl]-4-(4-bromo-3-methylphenyl)-2,4-dihydro-3H-1,2,4-triazol-3-one hydrochloride] the same measures were 0.74 nM, 32000 nM, 141 nM and 12 nM.
